Patent publication US5621133A (priority 1995, dated 1997)
Where a name gives a salt, the structure may show the parent alone.

How the values were obtained:
dopamine D-1 receptor [1] = molecular target: dopamine D-1 receptor (Rattus norvegicus, UniProt P18901); experiment: biochemical; conditions: D-1 Ki, rat caudate, [125I]SCH-23982
From the text: The compounds compete with the radiolabeled ligand for occupancy of the receptors and the molar potency of each compound was quantified.
The Ki values are inversely proportional to the affinity of the compound for the receptor.

dopamine D-2 receptor = dopamine D-2 receptor (Rattus norvegicus, UniProt P61169); experiment: biochemical; assay type: binding; conditions: rat caudate, [125I]-p-aminophenylethyl spiroperidol; read-out: D-2 Ki
Protocol: Homogenized rat caudate was the source of the D-2 receptors. […] The molar affinity of the compound for the receptor binding site was calculated by the same method used for the D-1 receptor assay, assuming a competitive interaction between the compound and the radiolabeled ligand.

[2] = tested on: striatal dopamine receptors; experiment: Rotation behavior assay of in vivo activity (6-hydroxydopamine lesioned rat rotational model); conditions: for ED50 s.c. (rotation behavior): injected subcutaneously
dopamine D-1 receptor [3] = conditions: for Intrinsic Activity (adenylate cyclase assay): dopamine = 100, goldfish retina or rat striatum; for EC50: read-out: EC50 (agonist activity in adenylate cyclase assay), tissue from goldfish retina or rat striatum
Protocol: In order to determine agonist activity, cell-free tissue homogenates are incubated in an ionic buffer solution containing ATP and the compound being evaluated. The tissue was obtained from either goldfish retina or rat striatum.

anesthetized dogs = experiment: Cardiovascular pharmacology - hemodynamic studies in anesthetized dogs; assay type: in vivo, dog (Beagle); conditions: cumulative intraaortic infusion above renal arteries; dose ranges (g/kg/min): 2A 3-10, 3 1-10, 35 1-3, 36 1-10, 37 1-30
Protocol: Male Beagle dogs were anesthetized with pentobarbital (30 mg/kg. i.v.) and maintained with i.v. infusion (Abbott/Shaw Life Care Pump, Model II/D) to maintain stable cardiovascular function. The dogs were […] with a cuffed endotracheal tube and ventilated with room air by means of a positive pressure respiratory pump. Expired respiratory CO2 was monitored with a Beckman LB-2 gas analyzer and maintained at 5% by appropriate pump adjustments. The dogs were maintained at a body temperature of 37.5°±1.0° C. with a thermostatically controlled animal table. Polyethylene catheters were placed in the abdominal aorta via the femoral and carotid arteries for blood pressure and left ventricular pressure recordings. A Swan-Ganz thermodilution catheter with a 15 cm proximal port was placed in the jugular vein for central venous and pulmonary arterial recordings and for determination of cardiac output (American Edwards Cardiac Output Computer, Model COM-1). Heart rate and electrocardiogram (ECG) recordings were made from a Lead II ECG connection. […] A calibrated electromagnetic flow probe (Carolina Medical Electronics) was positioned around the renal artery. The abdominal cavity is closed with wound clips. Recordings were made on a Grass polygraph. An additional small polyethylene catheter was inserted into a branch of the left femoral artery and the tip positioned in the aorta above the renal arteries. […] A thirty-fold dose-response-curve was administered by varying flow rate from 0.01 to 0.30 mL/minute.

rats = conditions: cited from earlier work
[4] = tested on: spontaneously hypertensive rats; experiment: Diuretic effects in spontaneously hypertensive rats; assay type: in vivo, rat; conditions: 3.0 mg/kg i.v., 2 hour interval
Protocol: Male, spontaneously hypertensive rats (SHR), weighing 285-350 grams were used to evaluate the diuretic effects of one of the compounds of the invention. Following an overnight fasting period with free access to drinking water, the rats received an intragastric fluid load of 0.9 saline at 5% of their body weight. Simultaneously with the load, the rats were dosed with a test compound or vehicle and placed individually in stainless steel metabolic cages where they had access to drinking water throughout the duration of the experiment. For intravenous administration, the rats were instrumented with indwelling cannulas placed into the jugular vein at least one week prior to the experiment.
Urine was collected at 2 and 4 hours following drug administration. The volume of excreted urine at each collection interval was measured accurately and the samples were analyzed for sodium, potassium and chloride ions. Sodium and potassium were measured using a Digital Readout Flame Photometer (Instrumentation Labs). Chloride was measured by the method of Shales and Shales, J Biol Chem 140:879 (1941). The statistical analysis of the data was computed by an off-line computer program. In this program, a comparison test is made between the vehicle (control) group and each treatment group for all variables at each time interval of the experiment. The test of statistical significance is based on the Student's t-test, where the calculated t is a measure of the probability density function.
A control group of six rats received 0.1 mg/kg of saline solution acidified by ascorbic acid (0.3 mL). This solution was also the vehicle for the test compound.

Parkinson's Disease = conditions: cited from earlier work

dopamine D-2 receptor, sequence (P61169 whole entry): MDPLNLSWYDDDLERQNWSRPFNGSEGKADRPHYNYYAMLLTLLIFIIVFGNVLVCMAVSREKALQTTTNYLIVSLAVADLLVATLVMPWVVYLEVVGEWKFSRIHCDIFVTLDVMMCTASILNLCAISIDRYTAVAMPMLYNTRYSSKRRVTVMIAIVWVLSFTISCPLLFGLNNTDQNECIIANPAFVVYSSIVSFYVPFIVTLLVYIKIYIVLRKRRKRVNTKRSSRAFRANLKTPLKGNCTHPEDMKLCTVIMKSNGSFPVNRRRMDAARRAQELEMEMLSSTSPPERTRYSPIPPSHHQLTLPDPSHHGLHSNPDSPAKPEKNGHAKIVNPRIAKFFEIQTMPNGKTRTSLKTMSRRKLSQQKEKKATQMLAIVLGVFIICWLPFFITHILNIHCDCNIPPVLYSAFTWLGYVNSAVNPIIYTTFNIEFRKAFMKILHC
dopamine D-1 receptor (Rattus norvegicus, UniProt P18901), sequence (P18901 whole entry): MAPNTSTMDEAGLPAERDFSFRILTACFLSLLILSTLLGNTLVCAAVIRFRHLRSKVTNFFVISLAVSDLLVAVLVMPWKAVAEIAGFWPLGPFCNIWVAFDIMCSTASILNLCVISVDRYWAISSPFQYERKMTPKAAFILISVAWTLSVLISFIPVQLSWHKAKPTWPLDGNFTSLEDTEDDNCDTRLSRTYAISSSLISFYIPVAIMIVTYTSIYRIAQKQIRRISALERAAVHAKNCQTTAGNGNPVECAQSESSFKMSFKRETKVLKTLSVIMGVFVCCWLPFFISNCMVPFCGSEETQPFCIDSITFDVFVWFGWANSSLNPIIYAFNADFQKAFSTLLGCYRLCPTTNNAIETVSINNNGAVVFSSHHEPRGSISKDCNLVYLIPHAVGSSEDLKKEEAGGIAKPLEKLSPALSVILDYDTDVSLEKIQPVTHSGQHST

NC[C@H]1C[C@@H](c2ccccc2)Cc2c1ccc(O)c2O (relative stereo) [Example 35, [1,3-cis]1-Aminomethyl-5,6-dihydroxy-3-phenyl-1,2,3,4-tetrahydronaphthalene Hydrobromide]
Ki (dopamine D-1 receptor [1]): 0.03 µM | Ki (dopamine D-2 receptor): 0.76 µM | ED50 oral (rotation behavior) [2]: 21.4 µmol/kg | Intrinsic Activity (adenylate cyclase assay) (dopamine D-1 receptor [3]): 66 | EC50 (dopamine D-1 receptor [3]): 0.01 µM | Max Decrease MAP (mean arterial blood pressure) (anesthetized dogs): 26% | Max Increase RBF (renal blood flow) (anesthetized dogs): 35%

Oc1cc2c(cc1O)C(c1ccccc1)CNCC2 (stereo not shown) [SKF 38393]
food intake (rats): decrease food intake

Br.NCC1=CC(C2CCCCC2)Cc2c1ccc(O)c2O (stereo not shown) [Example 36, 1-Aminomethyl-3-cyclohexyl-5,6-dihydroxy-3,4-dihydronaphthalene Hydrobromide]
Ki (dopamine D-1 receptor [1]): 0.2 µM | Ki (dopamine D-2 receptor): > 10 µM | ED50 s.c. (rotation behavior) [2]: 0.5 µmol/kg | ED50 oral (rotation behavior) [2]: 170 µmol/kg | Intrinsic Activity (adenylate cyclase assay) (dopamine D-1 receptor [3]): 57 | EC50 (dopamine D-1 receptor [3]): 0.079 µM | Max Decrease MAP (mean arterial blood pressure) (anesthetized dogs): 13% | Max Increase RBF (renal blood flow) (anesthetized dogs): 94%

Br.NCC1=CC(c2ccccc2)Cc2c1ccc(O)c2O (stereo not shown) [Example 2A, 1-Aminomethyl-5,6-dihydroxy-3-phenyl-3,4-dihydronaphthalene Hydrobromide]
Ki (dopamine D-2 receptor): > 10 µM | Urine potassium ([4]; control 0.29, n = 6): 0.55 meq/kg | Urine sodium ([4]; control 1.60, n = 6): 2.35 meq/kg | Urine chloride ([4]; control 1.87, n = 6): 2.71 meq/kg | Urine volume ([4]; control 13.02, n = 6): 22.57 mL/kg | Intrinsic Activity (adenylate cyclase assay) (dopamine D-1 receptor [3]): 56 | Max Decrease MAP (mean arterial blood pressure) (anesthetized dogs): 32% | Max Increase RBF (renal blood flow) (anesthetized dogs): 27%

CC(=O)Oc1ccc2c(c1OC(C)=O)CC(c1ccccc1)C=C2CN.Cl (stereo not shown) [Example 3, 5,6-Bis(acetoxy)-1-aminomethyl-3-phenyl-3,4-dihydronaphthalene Hydrochloride]
ED50 s.c. (rotation behavior) [2]: 0.91 µmol/kg | Max Decrease MAP (mean arterial blood pressure) (anesthetized dogs): 8% | Max Increase RBF (renal blood flow) (anesthetized dogs): 83%

Br.NC[C@@H]1C[C@H](C2CCCCC2)Cc2c1ccc(O)c2O [Example 37, [1R,3S]1-Aminomethyl-3-cyclohexyl-5,6-dihydroxy-1,2,3,4-tetrahydronaphthalene Hydrobromide]
Ki (dopamine D-1 receptor [1]): 0.057 µM | Ki (dopamine D-2 receptor): 10 µM | Intrinsic Activity (adenylate cyclase assay) (dopamine D-1 receptor [3]): 56 | EC50 (dopamine D-1 receptor [3]): 0.031 µM | Max Decrease MAP (mean arterial blood pressure) (anesthetized dogs): 39% | Max Increase RBF (renal blood flow) (anesthetized dogs): 48%

CC(C)C[C@H]1C(=O)N2CCC[C@H]2[C@]2(O)O[C@](NC(=O)[C@@H]3C=C4c5cccc6[nH]c(Br)c(c56)C[C@H]4N(C)C3)(C(C)C)C(=O)N12 [bromocryptine]
effect on L-DOPA requirement (Parkinson's Disease): lowers the amount of L-DOPA required to achieve the maximal therapeutic response
